Tested on: Drosophila
Experiment: Lifespan analysis of flies fed RU486
Assay type: in vivo
Conditions: flies lacking UAS-RNAi transgenes; RU486 fed from day 5 post-eclosion until death (FIG. 5K)
Procedure: All drugs were supplemented into cooled (65° C.) liquid adult medium (containing 3% yeast extract) following preparation to the following final concentration(s): RU486 (Cayman Chemical) was dissolved in ethanol was supplemented into medium after day 5 of eclosion at a final concentration of 100 μg/mL (with the exception of daGS>UAS-atg1 and controls, 0.5 μg/mL) vehicle controls were supplemented with same volume of ethanol alone. Timed RU486 feeding of daGS>UAS-atg1 consisted of flies being fed 0.5 μg/mL in standard adult media or fasting media only during the fasting phase, then flipped to vehicle control food the following morning only from days 10-40 of adulthood. Vehicle only controls were flipped at the same time for consistency. For gut microbe clearance, the medium contained 500 μg/mL ampicillin, 50 μg/mL tetracycline, and 200 μg/mL rifamycin in 50% ethanol. Same volume of 50% ethanol alone was used as the vehicle control. Drosophila were reared from embryos in low-density bottles with standard yeast cornmeal-agar media listed above (Archon Scientific) Newly eclosed flies (˜24 hours) were collected onto adult medium w/3% yeast extract and allowed to mate for 48 hours. […] Death was scored at time of flipping, and lifespan compared by log-rank analysis.

SMILES: CC#C[C@]1(O)CC[C@H]2[C@@H]3CCC4=CC(=O)CCC4=C3[C@@H](c3ccc(N(C)C)cc3)C[C@@]21C [RU486]
- effect on iTRF-mediated lifespan extension: no effect
